# Reference: US20260041744A1, “Methods for Treating Pompe Disease” (Amicus Therapeutics, Inc., priority 2022, published 2026)
# Columns and labels:
# [1] = system: adult subjects with late-onset Pompe disease (LOPD); test: Study ATB200-03 (PROPEL): PROMIS-Physical Function; format: in vivo, human; details: for CHG to Week 52 in PROMIS-Physical Function total score, LS Mean: MMRM, actual time point of assessments; for PROMIS-Physical Function Short Form 20a total score CHG, LS means (SE): Week 52, ANCOVA
# Description: The test for the primary endpoint was conducted first at the 1-sided 0.025 significance level, and if significant, the ordered key secondary endpoints were similarly tested at the same significance level. The statistical significance of the key secondary endpoints was interpreted following a hierarchical testing order, each at the 1-sided alpha level of 0.025. […] Primary analyses of efficacy were performed using the mixed-effect model for repeated measures (MMRM) for 6MWD in Intent-to-treat Observed Population (ITT) that includes all available, observed data without any missing data imputation (ITT-OBS) and analysis of covariance (ANCOVA) for all other endpoints in the Intent-to-Treat-Last Observation Carried Forward (ITT-LOCF) Population. A nonparametric randomization based ANCOVA was specified as the first sensitivity analysis for 6MWD and FVC. […] For the purposes of data presentation in this document, 2-sided p-values are reported hereafter, except as otherwise noted.
# [2] = system: adult subjects with late-onset Pompe disease (LOPD); test: Study ATB200-03 (PROPEL): serum creatine kinase (CK); format: in vivo, human; details: combined study population
# [3] = system: adult subjects with late-onset Pompe disease (LOPD); test: Study ATB200-03: global test and responder analyses on 6MWD, FVC, MMT; format: in vivo, human; details: change from baseline to Week 52
# Text: To support the interpretation of clinical benefit, a composite subject-level response was defined based on the totality of the treatment outcome data. Subjects were classified by an ordinal response variable consisting of significant improvement, moderate improvement, or minor/no improvement based on treatment outcomes.
# Thresholds for clinically relevant changes for 6MWD and FVC in Pompe specifically are not well established, however a large body of data exists from other neuromuscular and chronic respiratory diseases, especially interstitial pulmonary fibrosis (IPF). […] Accordingly, these thresholds were applied to analyses of Study ATB200-03 data.
# Additional post hoc patient-level analyses were conducted using these thresholds for 6MWD (±6%) and FVC (±3%) separately and combined.
# adult subjects with LOPD [4] = test: Study ATB200-07 (OLE of PROPEL): 6MWD and % predicted 6MWD; format: in vivo, human
# Text: (§1) The study doses and schedule are maintained from Study ATB200-03.
# (§2) Efficacy data are presented in this summary as change from the baseline of Study ATB200-03 (OLE-ES Population).
# adult subjects with LOPD [5] = test: Study ATB200-07 (OLE): sitting % predicted FVC; format: in vivo, human
# Text: as §1, §2
# [6] = system: adult subjects with Pompe disease; test: Pooled Studies ATB200-02/03/07 (Pool 2): 6MWD by exposure interval; details: exposure interval ≤15 months
# Description: The pooled efficacy analyses presented within this section include the outlier (Pool 2). […] Pooled efficacy analyses excluding the outlier subject (Pool 2A) were also performed.
# No long-term data for the alglucosidase alfa/placebo group are available, as all subjects switched to cipaglucosidase alfa/miglustat in Study ATB200-07.
# Efficacy data from the 3 adult Pompe disease clinical studies were pooled and analyzed to further support the long-term efficacy of cipaglucosidase alfa/miglustat in adult subjects. Data from non-ambulatory subjects (Study ATB200-02 Cohort 2) were not included in the pool as there was little overlap of efficacy endpoints for this group with the various ambulatory groups, such as 6MWD and lower MMT.
# The 3 adult Pompe disease clinical studies were pooled as follows: • The cipaglucosidase alfa/miglustat treatment group consists of: • All ambulatory subjects in Study ATB200-02 (Cohorts 1, 3, and 4), • All subjects randomized to the cipaglucosidase alfa/miglustat treatment group in Study ATB200-03, and • All subjects enrolled in Study ATB200-07. • The alglucosidase alfa/placebo treatment group consists of: • All subjects randomized to the ERT treatment group in Study ATB200-03.
# [7] = system: adult subjects with late-onset Pompe disease (LOPD); test: Study ATB200-03: summary across primary, secondary and biomarker endpoints (incl. SVC, FVC supine, MIP, MEP, SNIP, MMT upper/overall, QMT, TUG); details: ITT excluding outlier subject
# Description: • overall physical wellbeing • effort of breathing • muscle strength • muscle function • ability to move around • activities of daily living • energy level • level of muscular pain • actual value of the subject's functional status (improving, stable, or declining) at Week 52, as measured by the Physician's Global Impression of Change • change from baseline to Week 52 in the following measures of pulmonary function, as follows: • sitting FVC (% predicted) • MIP (cmH2O) • MIP (% predicted) • MEP (cmH2O) • MEP (% predicted) • SNIP (cmH2O)
# [8] = Week 52-LOCF, ERT-experienced Population
# [9] = Week 52-LOCF, ERT-naïve Subjects excluding Subject 4005-2511
# [10] = Week 52-LOCF, ITT excluding Subject 4005-2511
# [11] = Excluding Subject 4005-2511, 2-sided p 0.010
# [12] = ITT Population, 2-sided p 0.022
# [13] = Study ATB200-03 baseline, OLE-ES Population excluding Subject 4005-2511
# [14] = change from ATB200-03 baseline at Week 104, alglucosidase alfa/placebo group switched to cipaglucosidase alfa/miglustat at Week 52, OLE-ES excluding Subject 4005-2511
# [15] = ERT-naïve, Study ATB200-03/07, excluding the outlier
substance,measurement,setting,value
alglucosidase alfa [reference compound],"PROMIS-Physical Function Short Form 20a total score Absolute Value, Median","[1]; Baseline, ITT, ERT-naïve Subjects excluding Subject 4005-2511",67.00
same,"PROMIS-Physical Function Short Form 20a total score Absolute Value, Mean","[1]; Baseline, ITT, ERT-naïve Subjects excluding Subject 4005-2511, score 20 to 100, higher = less impact",72.71
same,mean (SD) change in PROMIS-Physical Function total score from baseline to Week 52,[1]; ERT-experienced Population,1.0 (11.20)
same,mean (SD) change in PROMIS-Physical Function total score from baseline to Week 52,[1]; ERT-naïve excluding Subject 4005-2511,5.1 (7.82)
same,"Change in PROMIS-Physical Function total score baseline to Week 52, LS means (SE) from ANCOVA","[1]; ITT-LOCF, ERT-naïve Subjects excluding Subject 4005-2511",6.96 (3.539)
same,"CHG to Week 52 in PROMIS-Physical Function total score, LS Mean",[1]; ITT-OBS excluding Subject 4005-2511 (overall),−0.3
same,"CHG to Week 52 in PROMIS-Physical Function total score, LS Mean","[1]; ITT-OBS excluding Subject 4005-2511, ERT-naïve Subjects",5.8
same,"CHG to Week 52 in PROMIS-Physical Function total score, LS Mean","[1]; ITT-OBS, ERT-experienced Subjects",−1.6
same,"PROMIS-Physical Function Short Form 20a total score Absolute Value, Mean (SD)",[1]; [8],65.90 (15.790)
same,"PROMIS-Physical Function Short Form 20a total score Absolute Value, Median",[1]; [8],66.00
same,"PROMIS-Physical Function Short Form 20a total score CHG, Mean (SD)",[1]; [8],−0.97 (11.196)
same,"PROMIS-Physical Function Short Form 20a total score CHG, Median",[1]; [8],−2.00
same,"PROMIS-Physical Function Short Form 20a total score Absolute Value, Mean",[1]; [9],77.86
same,"PROMIS-Physical Function Short Form 20a total score Absolute Value, Median",[1]; [9],80.00
same,"PROMIS-Physical Function Short Form 20a total score CHG (change from baseline), Mean",[1]; [9],5.14
same,"PROMIS-Physical Function Short Form 20a total score CHG (change from baseline), Median",[1]; [9],5.00
same,"PROMIS-Physical Function Short Form 20a total score Absolute Value, Mean (SD)",[1]; [10],68.16 (16.269)
same,"PROMIS-Physical Function Short Form 20a total score Absolute Value, Median",[1]; [10],69.00
same,"PROMIS-Physical Function Short Form 20a total score CHG, Mean (SD)",[1]; [10],0.19 (10.819)
same,"PROMIS-Physical Function Short Form 20a total score CHG, Median",[1]; [10],−1.00
same,"PROMIS-Physical Function Short Form 20a total score CHG, LS means (SE)",[1]; ITT-LOCF excluding Subject 4005-2511,0.11 (1.406)
same,"PROMIS-Physical Function Short Form 20a total score CHG, LS means (SE)","[1]; ITT-LOCF, ERT-experienced Population",−1.25 (1.587)
same,mean (SD) change in PROMIS-Physical Function total score from baseline to Week 52,[1]; overall population,0.2 (10.82)
same,mean change in CK after 52 weeks,[2],+15.6%
same,Wilcoxon rank sum test on sum of ranks for 6MWD and % predicted FVC: Mean Score,[3]; [11],48.5
same,Wilcoxon rank sum test on sum of ranks for 6MWD and % predicted FVC: Sum of Scores,[3]; [11],1793.5
same,Wilcoxon rank sum test on sum of ranks for 6MWD and FVC: Mean Score,[3]; [12],50.4
same,Wilcoxon rank sum test on sum of ranks for 6MWD and FVC: Sum of Scores,[3]; [12],1915.5
same,"6MWD, mean BSL",adult subjects with LOPD [4]; [13],351.7 m
same,"6MWD, mean 52-wk CFB","adult subjects with LOPD [4]; change from ATB200-03 baseline at Week 52 (= ATB200-07 baseline), OLE-ES excluding Subject 4005-2511",8.0 m
same,"6MWD, mean 104-wk CFB",adult subjects with LOPD [4]; [14],3.3 m
same,% Predicted FVC Baseline Mean,adult subjects with LOPD [5]; [15],79.1 % predicted
same,% Predicted FVC CFBL M12 (W 52) Mean,adult subjects with LOPD [5]; [15],−4.0 % predicted
same,% Predicted FVC CFBL M24 (W 104) Mean,adult subjects with LOPD [5]; [15],−3.1 % predicted
same,"Sitting FVC, mean BSL",adult subjects with LOPD [5]; [13],69.5 % predicted
same,"Sitting FVC, mean 52-wk CFB","adult subjects with LOPD [5]; change from ATB200-03 baseline at Week 52, OLE-ES excluding Subject 4005-2511",−3.6 % predicted
same,"Sitting FVC, mean 104-wk CFB",adult subjects with LOPD [5]; [14],−3.6 % predicted
same,"6MWD Baseline, Mean","[6]; Pool 2, Efficacy Population including the outlier",350.14 meters
same,"6MWD Baseline, Median","[6]; Pool 2, including the outlier",358.45 meters
same,"6MWD change from baseline, median","[6]; Pool 2, including the outlier",3.15 meters
same,"6MWD change from baseline, mean","[6]; last available post-baseline value − baseline, Pool 2, including the outlier",16.40 meters
same,parameters with statistically significant decline from baseline at Week 52,[7],"GSGC, FVC sitting, FVC supine, SVC sitting, and CK"
same,parameters with statistically significant improvement from baseline at Week 52,[7],not observed for any parameters
